Test [1] concerns the target T1, PTPN2 (Mus musculus, UniProt Q06180).
T1 construct: HiBiT; host or cells: B16F10.4
T1 sequence (Q06180 1-406): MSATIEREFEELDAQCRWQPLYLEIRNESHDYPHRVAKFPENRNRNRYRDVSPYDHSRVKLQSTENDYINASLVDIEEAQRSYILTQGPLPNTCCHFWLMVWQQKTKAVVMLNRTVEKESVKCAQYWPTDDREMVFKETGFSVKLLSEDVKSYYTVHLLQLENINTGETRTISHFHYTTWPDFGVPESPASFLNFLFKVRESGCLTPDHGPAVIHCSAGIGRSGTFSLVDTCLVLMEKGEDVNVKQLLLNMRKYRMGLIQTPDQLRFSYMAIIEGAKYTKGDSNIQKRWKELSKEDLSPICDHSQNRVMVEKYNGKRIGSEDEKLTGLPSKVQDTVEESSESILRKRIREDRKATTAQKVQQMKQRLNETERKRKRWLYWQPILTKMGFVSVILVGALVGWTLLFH
The test is described as follows: HiBiT PTPN2 degradation in B16F10.4 cells, 24 hours. In kind it is cell-based. The procedure:
(§1) PTPN2 degradation was determined based on quantification of luminescent signal using Nano-Glo® HiBiT Lytic Assay kit. Test compounds were added to the 384-well plate from a top concentration of 10 μM with 11 points, half log titration in duplicates. 293T. 109 cells were added into 384-well plates at a cell density of 5000 cells per well. The plates were kept at 37° C. with 5% CO2 for 24 hours. The cells treated in the absence of the test compound were the negative control and the cells without Nano-Glo® HiBiT Lytic reagent were the positive control. After 24-hour incubation, Nano-Glo® HiBiT Lytic Assay reagents were added to the cells. Luminescence was acquired on EnVision™ Multilabel Reader (PerkinElmer, Santa Clara, CA, USA).
For orientation: With HiBiT, luminescence reflects the tagged protein that the partner subunit can reach.

Test [2] deals with T2, PTPN2 (Homo sapiens, UniProt P17706).
T2 construct: expressed in transfected cells; host or cells: 293T.109 (HiBiT-PTPN2), derived from 293T WT (ATCC)
T2 sequence (P17706 1-415): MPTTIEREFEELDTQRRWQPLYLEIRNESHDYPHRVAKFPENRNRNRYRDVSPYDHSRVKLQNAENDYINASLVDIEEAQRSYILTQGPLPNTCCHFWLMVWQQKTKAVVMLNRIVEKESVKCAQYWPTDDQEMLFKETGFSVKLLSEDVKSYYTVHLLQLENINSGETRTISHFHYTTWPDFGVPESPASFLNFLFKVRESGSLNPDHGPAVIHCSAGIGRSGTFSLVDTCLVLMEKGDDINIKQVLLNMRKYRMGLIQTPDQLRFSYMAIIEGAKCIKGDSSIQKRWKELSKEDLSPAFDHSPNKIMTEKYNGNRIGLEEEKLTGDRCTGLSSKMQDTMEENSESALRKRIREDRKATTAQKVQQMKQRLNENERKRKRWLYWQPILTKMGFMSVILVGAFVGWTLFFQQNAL
In words: HiBiT PTPN2 degradation in 293T.109 (HiBiT-PTPN2) cells, 24 hours. The note with it: 293T.109 cells. In kind it is cell-based.
Excerpt: Dulbecco's modified Eagle medium (DMEM) without phenol red and fetal bovine serum (FBS) were purchased from Gibco (Grand Island, NY, USA). Nano-Glo® HiBiT Lytic Assay System was purchased from Promega (Medison, WI, USA). 293T. 109 (HiBiT-PTPN2) cell line was generated by ectopically expressing PTPN2 with N-terminal HiBiT fusion tag in 293T WT cell line purchased from ATCC (Manassas, VA, USA). Cell culture flasks and 384-well microplates were acquired from VWR (Radnor, PA, USA).
PTPN2 Degradation Analysis
as §1

Molecules are shown by their SMILES. Some results are limits rather than exact numbers.

`Cc1cc(CC(=O)Nc2ccc3c(F)c(N4CC(=O)NS4(=O)=O)c(O)cc3c2)ccc1-c1ccc2c(c1)n(C)c(=O)n2C1CCC(=O)NC1=O` (stereo not shown) [Degrader 28]: the half-maximal degradation concentration (DC50) (usually the concentration giving 50% degradation) was under 50 nM in test [1] and 50 to 150 nM in test [2].

Consider `Cn1c(=O)n(C2CCC(=O)NC2=O)c2ccc(C3CCN(CC4CC4C(=O)N4CC(Oc5ccc6cc(O)c(N7CC(=O)NS7(=O)=O)c(F)c6c5)C4)CC3)cc21` (stereo not shown) [Degrader 14], for which the values for the DC50 in test [1] and in test [2] were 150 to 500 nM and 50 to 150 nM, respectively.

Consider `Cn1c(=O)n(C2CCC(=O)NC2=O)c2ccc(N3CCC(CCC(=O)Nc4ccc5c(F)c(N6CC(=O)NS6(=O)=O)c(O)cc5c4)CC3)cc21` (stereo not shown) [Degrader 8], for which the DC50 in test [1] and in test [2] was 50 to 150 nM throughout.

With `Cn1c(=O)n(C2CCC(=O)NC2=O)c2ccc(-c3ccc([C@H](CO)C(=O)Nc4ccc5c(F)c(N6CC(=O)NS6(=O)=O)c(O)cc5c4)cc3)cc21` (stereo partly shown) [Degrader 137], the half-maximal degradation concentration (DC50) in test [1] was under 50 nM; in test [2] it was 150 to 500 nM.

Take `Cn1c(=O)n(C2CCC(=O)NC2=O)c2ccc(-c3ccn(CC(=O)Nc4ccc5c(F)c(N6CC(=O)NS6(=O)=O)c(O)cc5c4)c(=O)c3)cc21` (stereo not shown) [Degrader 32]: the 50% degradation concentration (DC50) in test [1] and in test [2] was 50 to 150 nM throughout.

As for `C[C@H]1CN(CC(=O)Nc2ccc3c(F)c(N4CC(=O)NS4(=O)=O)c(O)cc3c2)CCN1c1ccc2c(c1)n(C)c(=O)n2C1CCC(=O)NC1=O` (stereo partly shown) [Degrader 23], the DC50 in test [1] and in test [2] was 150 to 500 nM each time.

Take `Cn1c(=O)n(C2CCC(=O)NC2=O)c2ccc(N3CCCC(CC(=O)Nc4ccc5c(F)c(N6CC(=O)NS6(=O)=O)c(O)cc5c4)CC3)cc21` (stereo not shown) [Degrader 97]: the half-maximal degradation concentration (DC50) in test [1] was 150 to 500 nM; in test [2], 50 to 150 nM.

Regarding `COCCn1c(=O)n(C2CCC(=O)NC2=O)c2ccc(-c3ccc(CC(=O)Nc4ccc5c(F)c(N6CC(=O)NS6(=O)=O)c(O)cc5c4)cc3)cc21` (stereo not shown) [Degrader 45], the DC50 in test [1] and in test [2] was 150 to 500 nM throughout.

As to `Cn1c(=O)n(C2CCC(=O)NC2=O)c2ccc(C3CCN(CC4CC(C(=O)Nc5ccc6c(F)c(N7CC(=O)NS7(=O)=O)c(O)cc6c5)C4)CC3)cc21` (stereo not shown) [Degrader 6], the half-maximal degradation concentration (DC50) in test [1] was 50 to 150 nM; in test [2], under 50 nM.

Take `Cn1nc(N2CCC(=O)NC2=O)c2cc(F)c(N3CCC(CC(=O)Nc4ccc5c(F)c(N6CC(=O)NS6(=O)=O)c(O)cc5c4)CC3)cc21` [Degrader 129]: the figures for the DC50 in test [1] and in test [2] were 150 to 500 nM and 50 to 150 nM, respectively.

As to `Cc1nn(C2CCC(=O)NC2=O)c2ccc(N3CCC(CC(=O)Nc4ccc5c(F)c(N6CC(=O)NS6(=O)=O)c(O)cc5c4)CC3)cc12` (stereo not shown) [Degrader 101], the 50% degradation concentration (DC50) in test [1] and in test [2] was at least 500 nM each time.

Turning to `Cn1c(=O)n(C2CCC(=O)NC2=O)c2ccc([C@H]3CCN(CC(=O)Nc4ccc5c(F)c(N6CC(=O)NS6(=O)=O)c(O)cc5c4)C[C@@H]3F)cc21` (stereo partly shown) [Degrader 37], the DC50 in test [1] and in test [2] was 50 to 150 nM throughout.

Take `Cn1c(=O)n(C2CCC(=O)NC2=O)c2ccc(C3CC4CCC(C3)N4CC(=O)Nc3ccc4c(F)c(N5CC(=O)NS5(=O)=O)c(O)cc4c3)cc21` (stereo not shown) [Degrader 50]: the results for the DC50 in test [1] and in test [2] were 150 to 500 nM and 50 to 150 nM, respectively.

Consider `CCn1c(=O)n(C2CCC(=O)NC2=O)c2ccc(N3CCC(CC(=O)Nc4ccc5c(F)c(N6CC(=O)NS6(=O)=O)c(O)cc5c4)CC3)cc21` (stereo not shown) [Degrader 22], for which the DC50 in test [1] and in test [2] was 50 to 150 nM in each case.

As for `Cn1c(=O)n(C2CCC(=O)NC2=O)c2ccc(N3CCC(CCNC(=O)Nc4ccc5c(F)c(N6CC(=O)NS6(=O)=O)c(O)cc5c4)CC3)c(F)c21` (stereo not shown) [Degrader 144], the 50% degradation concentration (DC50) in test [1] is 50 to 150 nM; in test [2] it was under 50 nM.

For `Cn1c(=O)n(C2CCC(=O)NC2=O)c2ccc(Nc3cnn(CC(=O)Nc4ccc5c(F)c(N6CC(=O)NS6(=O)=O)c(O)cc5c4)c3)cc21` (stereo not shown) [Degrader 42], the half-maximal degradation concentration (DC50) in test [1] and in test [2] was 50 to 150 nM throughout.

On to `Cn1c(=O)n(C2CCC(=O)NC2=O)c2ccc(C3CCN(CC(=O)N4CC[C@@H](Oc5ccc6cc(O)c(N7CC(=O)NS7(=O)=O)c(F)c6c5)C4)CC3(F)F)cc21` (stereo partly shown) [Degrader 117], for which the DC50 in test [1] and in test [2] was at least 500 nM throughout.

Take `Cn1c(=O)n(C2CCC(=O)NC2=O)c2ccc(C3=CCC(CC(=O)Nc4ccc5c(F)c(N6CC(=O)NS6(=O)=O)c(O)cc5c4)CC3)cc21` (stereo not shown) [Degrader 157]: the DC50 in test [1] and in test [2] was 50 to 150 nM each time.

For the molecule `Cn1c(=O)n(C2CCC(=O)NC2=O)c2ccc(N3CCN(CC(=O)Nc4ccc5c(F)c(N6CC(=O)NS6(=O)=O)c(O)cc5c4)CC3)c(F)c21` (stereo not shown) [Degrader 57], the 50% degradation concentration (DC50) in test [1] was in the range of 150 to 500 nM; in test [2] it was 50 to 150 nM.

Turning to `C[C@@H]1CN(CC(=O)Nc2ccc3c(F)c(N4CC(=O)NS4(=O)=O)c(O)cc3c2)CCN1c1ccc2c(c1)n(C)c(=O)n2C1CCC(=O)NC1=O` (stereo partly shown) [Degrader 24], the DC50 in test [1] and in test [2] was 50 to 150 nM throughout.

Consider `Cn1c(=O)n(C2CCC(=O)NC2=O)c2ccc(Nc3cccc(CC(=O)Nc4ccc5c(F)c(N6CC(=O)NS6(=O)=O)c(O)cc5c4)c3)cc21` (stereo not shown) [Degrader 72], for which the DC50 in test [1] was 50 to 150 nM; in test [2], under 50 nM.

With `Cn1c(=O)n(C2CCC(=O)NC2=O)c2ccc([C@@H]3CCCN(CC(=O)Nc4ccc5c(F)c(N6CC(=O)NS6(=O)=O)c(O)cc5c4)C3)cc21` (stereo partly shown) [Degrader 152], the DC50 in test [1] lay in the range of 150 to 500 nM; in test [2] it was 50 to 150 nM.

Take `Cc1cc(CC(=O)Nc2ccc3c(F)c(N4CC(=O)NS4(=O)=O)c(O)cc3c2)ccc1N(C)c1ccc2c(c1)n(C)c(=O)n2C1CCC(=O)NC1=O` (stereo not shown) [Degrader 87]: the DC50 in test [1] and in test [2] was 50 to 150 nM each time.

In the case of `Cn1c(=O)n(C2CCC(=O)NC2=O)c2ccc(Nc3ccn(CC(=O)Nc4ccc5c(F)c(N6CC(=O)NS6(=O)=O)c(O)cc5c4)n3)cc21` (stereo not shown) [Degrader 107], the DC50 in test [1] and in test [2] was 50 to 150 nM throughout.

Regarding `O=C1CCC(N2CCc3cc(C4CCN(CC(=O)N5CCC(c6ccc7cc(O)c(N8CC(=O)NS8(=O)=O)c(F)c7c6)CC5)CC4)ccc32)C(=O)N1` (stereo not shown) [Degrader 154], the 50% degradation concentration (DC50) in test [1] and in test [2] was 150 to 500 nM throughout.

Consider `Cn1nc(N2CCC(=O)NC2=O)c2cc(F)c(N3CCC(CC(=O)Nc4ccc5c(F)c(N6CC(=O)NS6(=O)=O)c(O)cc5c4)CC3)cc21` [Degrader 134], for which the values for the DC50 in test [1] and in test [2] were 150 to 500 nM and 50 to 150 nM, respectively.

For the molecule `Cc1nn(C2CCC(=O)NC2=O)c2ccc(-c3ccc(CC(=O)Nc4ccc5c(F)c(N6CC(=O)NS6(=O)=O)c(O)cc5c4)cc3)cc12` (stereo not shown) [Degrader 85], the half-maximal degradation concentration (DC50) in test [1] and in test [2] was 150 to 500 nM throughout.

For the molecule `Cn1c(=O)n(C2CCC(=O)NC2=O)c2ccc(N3CC4(CCN(CC(=O)Nc5ccc6c(F)c(N7CC(=O)NS7(=O)=O)c(O)cc6c5)CC4)C3)cc21` (stereo not shown) [Degrader 92], the results for the 50% degradation concentration (DC50) in test [1] and in test [2] were at least 500 nM and 150 to 500 nM, respectively.

As for `Cn1c(=O)n(C2CCC(=O)NC2=O)c2ccc(-c3ccn(CC(=O)Nc4ccc5c(F)c(N6CC(=O)NS6(=O)=O)c(O)cc5c4)n3)cc21` (stereo not shown) [Degrader 149], the DC50 in test [1] and in test [2] was 150 to 500 nM in each case.

On to `Cn1c(=O)n(C2CCC(=O)NC2=O)c2ccc([C@@H]3CCN(CC(=O)Nc4ccc5c(F)c(N6CC(=O)NS6(=O)=O)c(O)cc5c4)C[C@H]3O)cc21` (stereo partly shown) [Degrader 111], for which the half-maximal degradation concentration (DC50) was 50 to 150 nM in test [1] and under 50 nM in test [2].

`Cn1c(=O)n(C2CCC(=O)NC2=O)c2ccc(C3CCN(CCC(C)(C)CCOc4ccc5cc(O)c(N6CC(=O)NS6(=O)=O)c(F)c5c4)CC3)cc21` (stereo not shown) [Degrader 7]: the DC50 was 150 to 500 nM in test [1] and under 50 nM in test [2].

For the molecule `Cn1c(=O)n(C2CCC(=O)NC2=O)c2ccc(C3CCN(CCNC(=O)c4ccc5c(F)c(N6CC(=O)NS6(=O)=O)c(O)cc5c4)CC3(F)F)cc21` (stereo not shown) [Degrader 59], the values for the DC50 in test [1] and in test [2] were 50 to 150 nM and 150 to 500 nM, respectively.

The values above are taken from US20240424111A1, “Degrader Compounds and Uses Thereof” (CALICO LIFE SCIENCES LLC, priority 2021, published 2024).
